Values after ≈ are worked out from the molar mass of the structure shown. Bridge positions count the residues as written; N and C are the ends. Square brackets hold non-standard residues; d marks the D form. Side chains are listed from the residue outwards. Peptide text beside a SMILES is read from it. I, II: the chains in the order shown. Orn = NCCC[C@H](N)C(=O)O
Experiments:
E. faecium ATCC 35667 = assay: microbe, parasite or virus in culture; type: cell-based, Enterococcus faecium; conditions: ATCC 35667
Method: (§1) Clinical isolates of CRE, MRSA and VRE were obtained from Lancet Laboratories, Durban, South Africa, with approval BE394/15 from the Biomedical Research Ethical Committee of the University of KwaZulu-Natal. Five reference strains of bacteria, namely Escherichia coli ATCC 25922, Pseudomonas aeruginosa ATCC 27853, Enterococcus faecium ATCC 35667, Staphylococcus aureus ATCC 29213 and Bacillus subtilis ATCC 6051 were supplied by the American Type Culture Collection (ATCC).
(§2) MIC values were determined by the broth microdilution method and the significance of the values obtained was interpreted following the guidelines of the Clinical and Laboratory Standards for Antimicrobial Susceptibility Testing.. The effect of human serum on the antimicrobial effect of the molecules tested was determined in a similar way to the MIC method used above in a solution of 50% human serum plus Mueller–Hinton broth.

S. aureus ATCC 29213 = assay: microbe, parasite or virus in culture; type: cell-based, Staphylococcus aureus; conditions: ATCC 29213
Method: as §1, §2

HepG2 cells = assay: MTT cytotoxicity assay; type: cell-based, human; conditions: HepG2, range of concentrations tested
Method: (§4) Cell viability was evaluated using the colorimetric MTT assay [21]. Human hepatocarcinoma (HepG2) cells and human embryonic kidney 293 (HEK-293) cells used in the drug toxicity assays were obtained from Cellonex (Johannesburg, South Africa). Viable HepG2 and HEK293 cells (20,000 cells/well) were seeded into a 96-well microtiter plate (200 µL) and allowed to attach overnight. The cells were exposed to varying concentrations of the peptides for 24 h. After removal of the treatment medium, 20 µL of MTT salt solution (5 mg/mL in 0.1M phosphate buffer saline (PBS)) and 100 µL of complete cell culture medium (CCM) were added to each well. After a 4 h (37 °C) incubation, the MTT salt solution was discarded and 100 μL of dimethyl sulphoxide (DMSO) were added to each well (1 h, 37 °C). The optical density of the solubilized formazan product was measured at 570 nm (reference λ of 690 nm) using a Bio-tek μQuant spectrophotometer (Winooski, VT, USA). […] GraphPad Prism (V5) (La Jolla, CA, USA) was used to obtain the half maximum inhibitory concentration (IC50) for each compound.

E. coli ATCC 25822 = assay: microbe, parasite or virus in culture; type: cell-based, Escherichia coli; conditions: ATCC 25822
Method: as §1, §2

P. aeruginosa ATCC 27853 = assay: microbe, parasite or virus in culture; type: cell-based, Pseudomonas aeruginosa; conditions: ATCC 27853
Method: as §1, §2

B. subtilis ATCC 6051 = assay: microbe, parasite or virus in culture; type: cell-based, Bacillus subtilis; conditions: ATCC 6051
Method: as §1, §2

S. aureus = assay: Effect on bacterial growth curves; type: cell-based; conditions: at MIC, ½ MIC and ¼ MIC
Method: (§3) The study of the growth dynamic of the S. aureus, E. coli and P.aeruginosa strains against CAMPDs were assayed with a starting inoculum of 10^6–10^8 CFU/mL in a 10 mL specific falcon tube. The experiment was performed by a real-time reverse-spin bioreactor RTS-1 (Biosan SIA, Riga, Latvia) that applies non-invasive, mechanically driven rotation; thus, the cell suspension is mixed efficiently, mixing and oxygening the culture at 37 °C. Cell growth kinetics were recorded non-invasively in real time from data obtained from a near-infrared optical system, every 15 min.

E. coli = assay: Effect on bacterial growth curves; type: cell-based; conditions: irrespective of concentration (MIC, ½ MIC and ¼ MIC)
Method: as §3

P. aeruginosa [1] = assay: Effect on bacterial growth curves; type: cell-based; conditions: for effect on growth curve: at ½ MIC or ¼ MIC
Method: as §3

[2] = test system: MRSA (methicillin-resistant S. aureus) isolates; assay: microbe, parasite or virus in culture; type: cell-based; conditions: methicillin-resistant ) isolates
Method: as §1, §2

in vitro = conditions: human
Method: as §4

P. aeruginosa [3] = assay: Time–kill curves; type: cell-based; conditions: any concentration tested (MIC, ½ MIC, ¼ MIC)
Method: Killing curve assays were performed with a starting inoculum of 6 × 10^6 CFU/mL. […] Antimicrobials were added to 5 mL of bacteria in the exponential phase of growth and incubated at 37 °C with shaking. Samples were obtained aseptically at 0, 1, 2, 4, 6 and 24 h, diluted in Ringer 1/4 and plated on TSA for colony counting. The response of microbial strains to a single antimicrobial was determined by lowering logarithms of viable bacteria. In accordance with Lora-Tamayo et al., an antimicrobial was considered active when a reduction of ≥1 log10 relative to the initial inoculum was observed.

MTT cytotoxicity assay = type: cell-based, human; conditions: human, HepG2 cells, HepG2, 24 h exposure
Method: as §4

Method for HEK293 cells: as §4

Compound	MIC (E. faecium ATCC 35667)	MBC (S. aureus ATCC 29213)	MIC (S. aureus ATCC 29213)	toxicity (MTT) (HepG2 cells)	MBC (E. coli ATCC 25822)	MIC (E. coli ATCC 25822)	MBC (P. aeruginosa ATCC 27853)	MIC (P. aeruginosa ATCC 27853)	MBC (B. subtilis ATCC 6051)	MIC (B. subtilis ATCC 6051)	toxicity (MTT) (HEK293 cells)	effect on growth curve (S. aureus)	effect on growth curve (E. coli)	delay in growth (P. aeruginosa [1]; at the MIC)	effect on growth curve (P. aeruginosa [1])	MIC [2]	IC50 at 24 h (in vitro)	MBC (E. faecium ATCC 35667)	time–kill: effect on bacterial population (P. aeruginosa [3])	IC50 at 24 h (MTT cytotoxicity assay)
CC(C)C[C@H](NC(=O)[C@H](CC(C)C)NC(=O)[C@H](CCCCN)NC(=O)[C@H](CC(C)C)NC(=O)[C@H](CC(C)C)NC(=O)[C@H](CCCCNC(=O)[C@H](CCCCN)NC(=O)[C@H](CC(C)C)NC(=O)[C@@H](N)CCCCN)NC(=O)[C@H](CCCCN)NC(=O)[C@H](CC(C)C)NC(=O)[C@@H](N)CCCCN)C(N)=O [G1KLK-L2KL2, (KLK)2KLLKLL-NH2] (H-KLKK([Lys-Leu-Lys])LLKLL-NH2)	>128 µg/mL	128 µg/mL (≈ 87.4 µM)	128 µg/mL (≈ 87.4 µM)	did not show toxicity at the range of concentrations tested	32 µg/mL (≈ 21.8 µM)	32 µg/mL (≈ 21.8 µM)	32 µg/mL (≈ 21.8 µM)	32 µg/mL (≈ 21.8 µM)	64 µg/mL (≈ 43.7 µM)	64 µg/mL (≈ 43.7 µM)	–	–	–	–	–	–	–	–	–	–
CC(C)C[C@H](NC(=O)[C@H](CC(C)C)NC(=O)[C@H](CCCN)NC(=O)[C@H](CC(C)C)NC(=O)[C@H](CC(C)C)NC(=O)[C@H](CCCCNC(=O)[C@H](CCCN)NC(=O)[C@H](CC(C)C)NC(=O)[C@@H](N)CCCN)NC(=O)[C@H](CCCN)NC(=O)[C@H](CC(C)C)NC(=O)[C@@H](N)CCCN)C(N)=O [G1OLO-L2OL2, (OLO)2KLLOLL-NH2] (H-[Orn]L[Orn]K([Orn-Leu-Orn])LL[Orn]LL-NH2)	16 µg/mL (≈ 11.5 µM)	64 µg/mL (≈ 45.9 µM)	64 µg/mL (≈ 45.9 µM)	–	8 µg/mL (≈ 5.74 µM)	8 µg/mL (≈ 5.74 µM)	16 µg/mL (≈ 11.5 µM)	16 µg/mL (≈ 11.5 µM)	32 µg/mL (≈ 22.9 µM)	32 µg/mL (≈ 22.9 µM)	did not show toxicity	negligible	abolished bacterial growth	approximately 6 h	no effect	64 µg/mL (≈ 45.9 µM)	470 µg/mL (≈ 337 µM)	16 µg/mL (≈ 11.5 µM)	had no effect at any concentration tested	–
CC(C)C[C@H](NC(=O)[C@H](CC(C)C)NC(=O)[C@H](CCCCN)NC(=O)[C@H](CC(C)C)NC(=O)[C@H](CC(C)C)NC(=O)[C@H](CCCCNC(=O)[C@H](CCCCN)NC(=O)[C@H](CC(C)C)NC(=O)[C@H](CCCCN)NC(=O)[C@H](CCCCNC(=O)[C@H](CCCCN)NC(=O)[C@H](CC(C)C)NC(=O)[C@@H](N)CCCCN)NC(=O)[C@H](CCCCN)NC(=O)[C@H](CC(C)C)NC(=O)[C@@H](N)CCCCN)NC(=O)[C@H](CCCCN)NC(=O)[C@H](CC(C)C)NC(=O)[C@H](CCCCN)NC(=O)[C@H](CCCCNC(=O)[C@H](CCCCN)NC(=O)[C@H](CC(C)C)NC(=O)[C@@H](N)CCCCN)NC(=O)[C@H](CCCCN)NC(=O)[C@H](CC(C)C)NC(=O)[C@@H](N)CCCCN)C(N)=O [G2KLK-L2KL2, (KLK)4(KKLK)2KLLKLL-NH2] (I: H-KLKK([Lys-Leu-Lys])KLKKLLKLL-NH2 / II: H-KLKK([Lys-Leu-Lys])KLK; amide I:8-II:C)	32 µg/mL (≈ 10 µM)	32 µg/mL (≈ 10 µM)	32 µg/mL (≈ 10 µM)	–	32 µg/mL (≈ 10 µM)	16 µg/mL (≈ 5 µM)	16 µg/mL (≈ 5 µM)	8 to 16 µg/mL	8 µg/mL (≈ 2.5 µM)	8 µg/mL (≈ 2.5 µM)	–	–	–	–	less capacity to delay growth	64 µg/mL (≈ 20 µM)	116 µg/mL (≈ 36.2 µM)	32 µg/mL (≈ 10 µM)	–	124 µg/mL (≈ 38.7 µM)
